The values below are quoted from earlier work in patent US20240123021A1, “PHARMACEUTICAL COMPOSITIONS” (EXTROVIS AG, priority 2021, published 2024).

Square brackets hold non-standard residues; d marks the D form. Peptide text beside a SMILES is read from it. dPhe(4-Cl) = N[C@H](Cc1ccc(Cl)cc1)C(=O)O; d2Nal = N[C@H](Cc1ccc2ccccc2c1)C(=O)O; dCit = NC(=O)NCCC[C@@H](N)C(=O)O; d3Pal = N[C@H](Cc1cccnc1)C(=O)O

The conditions of the series: according to Cetrotide EPAR scientific discussion.

For the molecule `CC(=O)N[C@H](Cc1ccc2ccccc2c1)C(=O)N[C@H](Cc1ccc(Cl)cc1)C(=O)N[C@H](Cc1cccnc1)C(=O)N[C@@H](CO)C(=O)N[C@@H](Cc1ccc(O)cc1)C(=O)N[C@H](CCCNC(N)=O)C(=O)N[C@@H](CC(C)C)C(=O)N[C@@H](CCCNC(=N)N)C(=O)N1CCC[C@H]1C(=O)N[C@H](C)C(N)=O` [Cetrorelix acetate] (Ac-[d2Nal][dPhe(4-Cl)][d3Pal]SY[dCit]LRP[dA]-NH2), the “stability (thermal, aqueous solution)” value is “thermally labile and unstable in aqueous solution”.

For the molecule “Acetyl-D-3-(2′-naphtyl)-alanine-D-4-chlorophenylalanine-D-3-(3′-pyridyl)alanine-L-serine-L-tyrosine-D-citruline-L-leucine-L-arginine-L-proline-D-alanine-amide [Cetrorelix]”, the “aggregation and gelling in solution” value (in solution) was “tends to aggregate and gel”.
